This is an account of results in ChEMBL document CHEMBL5223088, “EP2 Antagonists (2011-2021): A Decade's Journey from Discovery to Therapeutics” (J Med Chem, 2021).

A short description of data set [1]: Ratio of drug level in brain to plasma in C57BL/6 mouse at 3 mg/kg, ip by LC-MS/MS analysis. Particulars: read-out: BPR. The data set is classed as ADME, organism-based.
The nature of data set [2]: Solubility of the compound. Type of data set: ADME.
Data set [3] deals with T1, Prostaglandin E2 receptor EP2 subtype (Homo sapiens, UniProt P43116). As to the kind of experiment: Potency index, ratio of PF-0418948 Ki to test compound Ki for binding affinity to human EP2.
T1 sequence (P43116 whole entry): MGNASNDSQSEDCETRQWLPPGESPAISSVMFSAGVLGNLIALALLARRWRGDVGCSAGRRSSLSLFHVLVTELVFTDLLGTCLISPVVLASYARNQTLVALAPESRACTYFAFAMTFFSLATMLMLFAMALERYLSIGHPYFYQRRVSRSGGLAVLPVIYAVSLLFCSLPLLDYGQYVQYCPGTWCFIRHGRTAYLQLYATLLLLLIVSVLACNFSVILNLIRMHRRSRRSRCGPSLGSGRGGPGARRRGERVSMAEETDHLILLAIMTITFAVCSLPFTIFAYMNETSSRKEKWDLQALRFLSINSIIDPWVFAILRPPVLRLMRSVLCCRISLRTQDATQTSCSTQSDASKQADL
Data set [4] has as its target T2, Prostaglandin D2 receptor (Homo sapiens, UniProt Q13258).
T2 sequence (Q13258 whole entry): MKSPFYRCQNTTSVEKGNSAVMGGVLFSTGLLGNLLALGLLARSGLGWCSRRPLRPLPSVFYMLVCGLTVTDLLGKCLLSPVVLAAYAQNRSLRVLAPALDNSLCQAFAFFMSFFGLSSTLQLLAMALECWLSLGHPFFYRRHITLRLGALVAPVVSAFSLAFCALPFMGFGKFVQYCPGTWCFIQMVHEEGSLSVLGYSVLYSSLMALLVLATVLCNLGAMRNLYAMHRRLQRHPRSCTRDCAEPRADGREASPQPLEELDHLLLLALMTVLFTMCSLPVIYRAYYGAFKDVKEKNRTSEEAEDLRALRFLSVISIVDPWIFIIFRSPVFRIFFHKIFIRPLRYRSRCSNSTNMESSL
As to the kind of experiment: Binding affinity to DP1 receptor in human mast cell assessed as inhibition constant. The data set is classed as cell-based.

Data set [5] deals with T1, Prostaglandin E2 receptor EP2 subtype. As to the kind of experiment: Binding affinity to EP2 receptor in human mast cell assessed as inhibition constant. The data set is classed as cell-based.
Data set [6] has as its target T3, Prostaglandin E2 receptor EP4 subtype (Homo sapiens, UniProt P35408). As to the kind of experiment: Binding affinity to EP4 receptor in human mast cell assessed as inhibition constant. The data set is classed as cell-based.
The target of data set [7] is T2, Prostaglandin D2 receptor. As to the kind of experiment: Binding affinity to human DP1 receptor expressed in CHO cells assessed as inhibition constant. Type of data set: cell-based.
Data set [8] addresses T4, Prostaglandin E2 receptor EP3 subtype (Homo sapiens, UniProt P43115).
T4 sequence (P43115 whole entry): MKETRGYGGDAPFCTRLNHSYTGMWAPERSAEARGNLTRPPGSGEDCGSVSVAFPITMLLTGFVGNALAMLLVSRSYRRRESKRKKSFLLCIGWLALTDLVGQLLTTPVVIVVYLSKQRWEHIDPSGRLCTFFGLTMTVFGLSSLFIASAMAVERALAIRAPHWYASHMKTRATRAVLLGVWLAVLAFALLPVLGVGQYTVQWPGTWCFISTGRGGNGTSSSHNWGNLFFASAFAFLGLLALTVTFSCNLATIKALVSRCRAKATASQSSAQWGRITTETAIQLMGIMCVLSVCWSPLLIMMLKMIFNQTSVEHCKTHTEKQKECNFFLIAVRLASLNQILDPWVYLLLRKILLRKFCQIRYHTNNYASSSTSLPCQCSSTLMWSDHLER
Briefly: Binding affinity to EP3 receptor (unknown origin) assessed as inhibition constant.

Data set [9] deals with T5, Prostaglandin E2 receptor EP1 subtype (Homo sapiens, UniProt P34995).
T5 sequence (P34995 whole entry): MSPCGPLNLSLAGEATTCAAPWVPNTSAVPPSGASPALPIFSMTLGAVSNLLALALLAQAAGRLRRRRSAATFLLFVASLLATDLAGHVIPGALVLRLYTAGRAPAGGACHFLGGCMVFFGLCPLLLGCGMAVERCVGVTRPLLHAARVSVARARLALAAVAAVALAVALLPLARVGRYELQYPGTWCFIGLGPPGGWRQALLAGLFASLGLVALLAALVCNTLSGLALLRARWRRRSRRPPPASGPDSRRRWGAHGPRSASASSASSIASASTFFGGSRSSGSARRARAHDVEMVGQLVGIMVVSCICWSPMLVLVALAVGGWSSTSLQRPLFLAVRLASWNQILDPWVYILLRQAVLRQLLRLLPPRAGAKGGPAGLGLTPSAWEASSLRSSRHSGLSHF
Briefly: Binding affinity to EP1 receptor (unknown origin) assessed as inhibition constant.

The target of data set [10] is T3, Prostaglandin E2 receptor EP4 subtype. As to the kind of experiment: Binding affinity to human EP4 receptor expressed in CHO cells assessed as inhibition constant. The data set is classed as cell-based.
Data set [11] can be described thus: Ratio of drug level in brain to plasma in C57BL/6 mouse at 10 mg/kg, po by LC-MS/MS analysis. Type of data set: ADME, organism-based. The following applies: read-out: BPR.
The nature of data set [12]: Aqueous solubility of compound in PBS buffer at pH 7.4 by nephelometric analysis. Type of data set: ADME.
In data set [13] the target is T3, Prostaglandin E2 receptor EP4 subtype. Briefly: Binding affinity to EP4 receptor (unknown origin) assessed as binding constant. Particulars: filed as antagonist.
For data set [14], the target named is T1, Prostaglandin E2 receptor EP2 subtype. Briefly: Binding affinity to human EP2 receptor expressed in rat C6 cells assessed as binding constant. The data set is classed as cell-based. Particulars: filed as antagonist.
A short description of data set [15]: Half life in C57BL/6 mouse at 10 mg/kg, po by LC-MS/MS analysis. Type of data set: ADME, organism-based. The following applies: in vivo.
For data set [16], the target named is T6, Prostaglandin D2 receptor (Homo sapiens) (UniProt Q13258).
T6 sequence (whole entry): T2 sequence (Q13258 whole entry)
Briefly: Binding affinity to human DP1 receptor expressed in rat C6 cells assessed as binding constant. Type of data set: cell-based. Particulars: filed as antagonist.

Data set [17] is described as follows: Half life in mouse C57BL/6 plasma at 20 mg/kg,ip by LC-MS/MS analysis. Particulars: C57BL/6, mouse. Type of data set: ADME, organism-based.
Data set [18] can be described thus: Ratio of drug level in brain to plasma in pilocarpine-induced Sprague-Dawley rat at 25 mg/kg, ip after 6 hrs by LC-MS/MS analysis.
A short description of data set [19]: Ratio of drug level in brain to plasma in C57BL/6 mouse at 20 mg/kg, ip by LC-MS/MS analysis. Type of data set: ADME, organism-based. The following applies: read-out: BPR.
Data set [20] deals with T1, Prostaglandin E2 receptor EP2 subtype. As to the kind of experiment: Binding affinity to human EP2 receptor expressed in C6 cells assessed as binding constant at 10 mins by TR-FRET cAMP functional assay. The following applies: filed as antagonist. The data set is classed as cell-based. Background: In TR-FRET formats the signal depends on donor and acceptor labels being close together.

Each structure is given as a SMILES string. Values after ≈ are worked out from the molar mass of the structure shown.

T3 sequence (P35408 whole entry): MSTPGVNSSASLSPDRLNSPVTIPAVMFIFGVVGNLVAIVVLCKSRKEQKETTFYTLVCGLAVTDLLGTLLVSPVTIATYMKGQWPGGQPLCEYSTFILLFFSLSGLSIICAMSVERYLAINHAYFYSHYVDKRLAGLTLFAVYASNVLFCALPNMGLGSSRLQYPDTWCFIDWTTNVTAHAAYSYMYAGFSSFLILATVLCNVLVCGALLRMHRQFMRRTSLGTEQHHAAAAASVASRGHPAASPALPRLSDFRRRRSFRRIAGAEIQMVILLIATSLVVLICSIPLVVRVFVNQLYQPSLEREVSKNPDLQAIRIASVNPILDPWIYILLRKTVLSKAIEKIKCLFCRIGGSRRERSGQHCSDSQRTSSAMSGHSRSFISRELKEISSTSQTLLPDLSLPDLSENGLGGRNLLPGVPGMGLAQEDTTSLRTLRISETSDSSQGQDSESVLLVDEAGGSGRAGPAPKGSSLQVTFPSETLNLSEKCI

For the compound `COc1cc(/C=C/C(=O)NCCn2c(C)cc3ccccc32)cc(OC)c1OC`, the Kp in data set [1] stood at 0.3. The solubility in [2] was 45 µM (≈ 17.8 µg/mL).

With `COc1ccc(C(=O)N2CCC(COc3ccc(-c4ccc(C#N)cc4)cc3)(C(=O)O)C2)cc1` (stereo not given), the Ratio Ki in [3] came out at 10. Moreover, the Ki is 1.2 µM in data set [4], 0.00063 µM in data set [5] and 16.3 µM in [6].

`COc1ccc2cc(OCC3(C(=O)O)CN(C(=O)c4ccc(F)cc4)C3)ccc2c1` [PF-04418948]: the inhibition constant Ki in [7], in data set [8], in [9] and in [10] was more than 10 µM throughout.

For the compound `Cc1cc2ccccc2n1CCNC(=O)c1ccc(-c2nnn[nH]2)cc1`, in [11], the Kp came to 0.02. Also, the kinetic solubility in data set [12] was 500 µM (≈ 173 µg/mL). For the same compound, the antagonist equilibrium constant (Kb) in data set [13] worked out at 15 µM; in data set [14], 0.0485 µM; in data set [16], 18 µM. Further, the half-life in [15] is 10.5 h.

In turn, `Cc1[nH]c2ccccc2c1CCNC(=O)c1ccc(-c2c[nH]cn2)cc1` had a half-life in data set [17] of 2.8 h. The Kp at 6 h in data set [18] was 0.03. Moreover, the Kp in [19] came out at 0.02. Also, the Kb in data set [20] is 0.0132 µM.

By solubility is commonly meant how much of the substance goes into solution per volume. High values mean a readily soluble substance, low ones a poorly soluble substance. The term Ki denotes the equilibrium dissociation constant of an inhibitor or competing ligand from its target. By kinetic solubility is commonly meant solubility judged after dilution from a stock solution rather than from solid. As usually defined, the Kb is the equilibrium dissociation constant of an antagonist, usually derived from a functional assay. As usually defined, the half-life is how long it takes for the measured level to halve. High values mean slow loss, low ones fast loss.
